This is an account of results in BindingDB's records for doi:10.1006/bbrc.1993.2130 (National Children's Medical Research Center, 1993).

Bounds are passed on as bounds.

The assay addresses T1, Alpha-1A adrenergic receptor (Homo sapiens, UniProt P35348).
T1 sequence (P35348 whole entry): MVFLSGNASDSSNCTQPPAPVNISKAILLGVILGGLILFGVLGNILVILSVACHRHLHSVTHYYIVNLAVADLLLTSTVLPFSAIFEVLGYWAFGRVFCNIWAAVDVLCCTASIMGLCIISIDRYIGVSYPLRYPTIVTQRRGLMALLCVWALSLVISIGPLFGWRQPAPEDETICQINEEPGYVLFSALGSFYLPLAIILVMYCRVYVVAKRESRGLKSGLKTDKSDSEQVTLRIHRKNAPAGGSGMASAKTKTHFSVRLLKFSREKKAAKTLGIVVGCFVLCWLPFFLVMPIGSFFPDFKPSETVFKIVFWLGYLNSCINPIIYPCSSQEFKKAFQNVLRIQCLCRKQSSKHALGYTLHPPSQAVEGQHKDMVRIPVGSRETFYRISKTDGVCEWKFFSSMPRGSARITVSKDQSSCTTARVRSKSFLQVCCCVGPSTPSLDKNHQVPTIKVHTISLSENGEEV

Usually Ki stands for the equilibrium dissociation constant of an inhibitor or competing ligand from its target. A low value points to tighter binding. Consider `COc1cccc(OC)c1OCCNCC1Oc2ccccc2OC1c1ccccc1` (stereo not drawn) [NSC_185453], for which the Ki was found to be 0.23 nM. The result for `COc1ccccc1N1CCN(CCCNc2c(C)c(=O)n(C)c(=O)n2C)CC1` [Urapidil-5-methyl] reads 4.2 nM. `COc1ccc(OC)c(C(O)C(C)N)c1` (stereo not drawn) gave a Ki of over 10000 nM.
